Data on nine molecules can be found in publication PMC7235863, “Benzamide Derivatives Targeting the Cell Division Protein FtsZ: Modifications of the Linker and the Benzodioxane Scaffold and Their Effects on Antimicrobial Activity” (Antibiotics, 2020).

≈ marks a conversion by molar mass, not a printed value. Where two headings read alike, the source gives them in different places.

In series [1] the test system is MDRSA 11.7. The series can be described thus: Broth microdilution MIC, MDRSA 11.7. It is filed as cell-based, Staphylococcus aureus. How it is done: (§1) Antimicrobial activity of 1–8 was evaluated on both Gram-positive (Table 3) and Gram-negative (Table 4) species. As a continuation of our previous studies, considering the Gram-positive S. aureus, we chose a methicillin-sensitive S. aureus (MSSA, ATCC 29213), a methicillin-resistant S. aureus (MRSA, ATCC 43300) and two clinical isolates of S. aureus showing multi-drug resistance (MDRSA).
(§2) Antibacterial activities of compounds were determined by the broth microdilution method against MDRSA 11.7, MDRSA 12.1 and E. coli N43 following the European Committee on Antimicrobial Susceptibility Testing (EUCAST) recommendations and Clinical and Laboratory Standards Institute (CLSI) guidelines. Strains MDRSA ST-11.7 and ST-12.1 were obtained through the interlaboratory control organized by the EU Reference Laboratory—Antimicrobial Resistance. Only data on their resistance to antibiotics are known, but other data are not available.
(§3) Bacterial suspension of specific bacterial strain equivalent to 0.5 McFarland turbidity standard was diluted with cation-adjusted Mueller Hinton broth with TES (Thermo Fisher Scientific), to obtain a final inoculum of 10^5 CFU/mL. Compounds dissolved in DMSO and inoculum were mixed together and incubated for 20 h at 37 °C. After incubation, the minimal inhibitory concentration (MIC) values were determined by visual inspection as the lowest dilution of compounds showing no turbidity. Tetracycline was used as a positive control on every assay plate.

Series [2] concerns MRC-5 cells. The series can be described thus: MTT cytotoxicity assay. To be noted: MRC-5, concentration reducing cell viability by 90%, 24-h incubation. The class given is cell-based, human. How it is done:
The compounds showing the most promising activities vs. MRSA were also assessed for their cytotoxicity on human MRC-5 cells. TD90, the concentration (µg/mL) able to reduce by 90% the viability of these cells, was determined together with the therapeutic index (TI), expressed as the ratio between TD90 and MBC values.
(§4) Normal human lung fibroblasts (MRC-5) were grown in Dulbecco’s modified Eagle’s medium (DMEM) supplemented with 10% calf serum, 100 U/mL penicillin and […] streptomycin in an incubator at 5% CO2 atmosphere and 37 °C. The Gram-positive Staphylococcus aureus (methicillin-sensitive, MSSA ATCC 29213, and methicillin-resistant, MRSA ATCC 43300) and the Gram-negative Escherichia coli (ESBL, extended-spectrum beta-lactamase-positive) bacterial cells were grown in Luria-Bertani broth (LB) at 37 °C under constant shaking at 300 rpm.
Compounds showing an antibacterial activity at a concentration lower than 10 μg/mL were serially diluted in DMEM and tested on MRC-5 cells by the MTT cytotoxicity assay (Sigma, St Louis, MO, USA). Cells (10^4 cells/well) were tested in a 96-well plate, in quadruplicate, using serially two-fold-diluted concentrations of the compound in 100 μL DMEM medium. After a 24-h incubation, the compound was removed, and the cells were overlaid with 1 mg/mL MTT in 100 μL serum-free DMEM for 3 h at 37 °C. The MTT solution was then replaced with DMSO for 10 min, and the absorbance was measured at 570 nm. The percentage of cytotoxicity was calculated by the formula [100 − (sample OD/untreated cells OD) × 100]. The compound concentration reducing cell viability by 90% was defined as the TD90 cytotoxic dose. The “therapeutic index” (TI) was also determined and defined as the ratio between TD90 and the MBC values.
On the technique in general: Tetrazolium assays rely on reduction of a dye to a coloured formazan, in cell work by metabolically active cells.

Series [3] concerns ESBL E. coli. The experiment in a line: MIC in LB broth, ESBL E. coli clinical isolate. The class given is cell-based, Escherichia coli. The procedure:
(§5) We thus tested 1–8 and III initially on the reference sensitive E. coli ATCC 25922 and on the extended-spectrum of beta-lactamase-positive (ESBL) E. coli, as Gram-negative bacteria. Moreover, in order to evaluate the susceptibility of this series of compounds to the efflux pump AcrAB, we employed also the above-mentioned E. coli N43, which is the knockout of the AcrAB cell membrane pump.
as §4
(§6) The antibacterial activity was tested on both a methicillin-sensitive and a methicillin-resistant S. aureus strain, and an ESBL E. coli clinical isolate. All the compounds were dissolved at the final concentration of 20 mg/mL in dimethyl sulfoxide (DMSO) and serially diluted in LB. Fresh cell cultures were used at 10^5 cells/mL in a final volume of 2 mL. Each bacterial sample was grown with different compound concentrations that ranged from 100 to 0.1 μg/mL. […] To determine the MBC, the bacteria were then washed three times with LB, centrifuged at 900× g for 10 min at 4 °C, and the pellet resuspended in fresh LB. After overnight incubation at 37 °C, the absence of growth was confirmed by OD measurement. The presence of antibacterial activity, at any concentration tested, was established for values of absorbance < 0.1 OD600. All tests were performed in quadruplicate and for each series of experiments, both positive (no compounds) and negative (no bacteria) controls were included.

Series [4] has as its system MDRSA 12.1. The experiment in a line: Broth microdilution MIC, MDRSA 12.1. It is filed as cell-based, Staphylococcus aureus. The procedure: as §1, §2, §3
On the technique in general: In broth dilution the organism is exposed to a series of concentrations in liquid medium.

The subject of series [5] is E. coli N43. The series can be described thus: Broth microdilution MIC, efflux-defective E. coli N43. The class given is cell-based, Escherichia coli. How it is done:
as §5, §2, §3

In series [6] the test system is E. coli ATCC 25922. The series can be described thus: MIC on reference sensitive E. coli. The class given is cell-based, Escherichia coli.
Text: as §5

Series [7] relates to MSSA ATCC 29213. The experiment in a line: MIC/MBC determination in LB broth, MSSA. Conditions: MSSA ATCC 29213. The class given is cell-based, Staphylococcus aureus. The procedure:
as §4, §6

Series [8] has as its system MRSA ATCC 43300. The experiment in a line: MIC/MBC determination in LB broth, MRSA. It is filed as cell-based, Staphylococcus aureus. The procedure:
as §4, §6

The subject of series [9] is S. aureus ATCC 43300. The experiment in a line: Transmission electron microscopy of septum formation. The class given is cell-based, Staphylococcus aureus. To be noted: MRSA cultured overnight; 1 at 1 μg/mL, DFNB at 0.25 μg/mL. An excerpt:
After having assessed the antimicrobial profile of this class of derivatives, we chose 1 to be further analyzed by transmission electron microscopy (TEM), in order to evaluate any morphological changes in septum formation, as done before as a simple FtsZ target validation assay. We cultured S. aureus ATCC 43300 alone or in the presence of 1 and 2,6-difluorononyloxybenzamide (DFNB) as a reference FtsZ inhibitor (positive control). […] These are the typical effects of the inhibition of FtsZ assembly and consequently of the block of bacterial cell division.
S. aureus ATCC 43300 (10^9 cells/mL) were cultured in the presence of 1 and DFNB (positive control), at the same concentrations used for optical microscopy and, after 16 h incubation at 37 °C, the cells were harvested and processed for transmission electron microscopy, as already described. Untreated S. aureus was used as negative control. After centrifugation at 3100× g for 5 min at room temperature, pelleted bacteria were fixed in 2.5% glutaraldehyde (Polysciences, Warrington, PA) in 0.1 M Na cacodylate buffer, pH 7.4, for 1 h at 4 °C, rinsed twice and post-fixed in Na cacodylate-buffered 1% OsO4 for 1 h at 4 °C. The samples were dehydrated through a series of graded ethanol solutions and propylene oxide and embedded in Poly/Bed 812 resin mixture. […]

The test system of series [10] is E. coli WildType. Details: method as in earlier work. To be noted: ref 10 (Z2, Z3), 11 (TXY436), 12 (I, II); cited from earlier work.
The test system of series [11] is E. coli AcrAB–. Conditions: ref 10 (Z2, Z3), 11 (TXY436), 12 (I, II); cited from earlier work.
In series [12] the test system is Methicillin Sensitive S. aureus. Conditions: Methicillin Sensitive S. aureus; ref 10 (Z2, Z3), 11 (TXY436), 12 (I, II); cited from earlier work.
Series [13] concerns ESBL E. coli. Also noted: method as in PMID 31750973. Conditions: in-house reference compounds ref 12; cited from earlier work.
Series [14] relates to E. coli N43. Also noted: method as in PMID 31750973. To be noted: E. coli N43 (AcrAB knockout); in-house reference compounds ref 12; cited from earlier work.
In series [15] the test system is Sa cells. Details: method as in PMID 31750973. To be noted: Sa cells incubated with the compounds ref 12; cited from earlier work.
The test system of series [16] is E. coli ATCC 25922. Details: method as in PMID 31750973. To be noted: in-house reference compounds ref 12; cited from earlier work.
The test system of series [17] is selected Gram-negative strains. Details: method as in PMID 24637241. Conditions: after genetic inactivation of AcrAB or its inhibition by PaβN ref 11; cited from earlier work.
The mark [18] stands for this setting: Staphylococcus aureus, read-out: MIC.
The mark [19] stands for this setting: Staphylococcus aureus, read-out: MBC.

By MIC is commonly meant the least concentration at which growth counts as inhibited. One may read the MBC as the lowest tested concentration that kills the bacteria rather than only halting them. As to “3-(1,4-benzodithiane-2-yl)-2,6-difluorobenzamide [Compound 5]”, the MIC in series [1] was 8 µg/mL; in [3] it was above 100 µg/mL; in series [4] it was 8 µg/mL; in series [5] (E. coli N43 (AcrAB knockout)), above 128 µg/mL; in series [6] (E. coli ATCC 25922), above 100 µg/mL; in [7], 5 µg/mL. The MIC in series [8] was found to be 5 µg/mL. The TD90 in series [2] is 200 µg/mL. Besides, the MBC in series [7] and in series [8] was 10 µg/mL throughout. The MBC/MIC in [7] and in series [8] was 2 throughout.

As to “3-(1,4-benzoxathiane-2-yl)-2,6-difluorobenzamide [Compound 1]”, the MIC is 2 µg/mL in series [1]; above 100 µg/mL in series [3]; 2 µg/mL in series [4]; 64 µg/mL in [5] (E. coli N43 (AcrAB knockout)); above 100 µg/mL in series [6] (E. coli ATCC 25922); 1 µg/mL in series [7]. The molecule further showed an MIC in series [8] of 1 µg/mL. This molecule yielded a TD90 in [2] above 800 µg/mL. Further, the MBC in series [7] and in series [8] was 1 µg/mL in each case. Also, the MBC/MIC in series [7] and in series [8] was 1 throughout. Besides, in series [9], the “Morphological changes in septum formation (TEM)” value is “strong alterations in the septum formation and bacterial desegregation”.

“3-(1,4-benzoxathiane-3-yl)-2,6-difluorobenzamide [Compound 3]”: the MIC was 32 µg/mL in series [1]; above 100 µg/mL in series [3]; 32 µg/mL in series [4]; 128 µg/mL in [5] (E. coli N43 (AcrAB knockout)); above 100 µg/mL in [6] (E. coli ATCC 25922); 20 µg/mL in [7]. Besides, the MIC in [8] came to 20 µg/mL. In addition, the TD90 in series [2] is listed as 200 µg/mL. The MBC in [7] and in series [8] was 20 µg/mL each time. Also, the MBC/MIC in series [7] and in series [8] was 1 throughout.

Consider `NC(=O)c1c(F)ccc(OCCC2COc3ccccc3O2)c1F` (centres unmarked) [Compound 7], for which the MIC in series [1] (setting [18]) is 4 µg/mL (≈ 11.9 µM); in series [3] (Escherichia coli, read-out: MIC), above 100 µg/mL; in series [4] (setting [18]), 4 µg/mL (≈ 11.9 µM); in [5] (Escherichia coli, N43), 8 µg/mL (≈ 23.9 µM); in [6] (Escherichia coli, ATCC25922), above 100 µg/mL; in series [7] (setting [18]), 5 µg/mL (≈ 14.9 µM). Also, the MIC in series [8] (setting [18]) came out at 5 µg/mL (≈ 14.9 µM). The TD90 in series [2] amounted to 380 µg/mL. The MBC/MIC in series [7] and in series [8] was 1 throughout. The MBC in [7] (setting [19]) and in series [8] (setting [19]) was 5 µg/mL (≈ 14.9 µM) throughout.

Turning to `CC[n+]1c(/C=C/N(C)c2ccccc2)n(-c2ccccc2)c2ccc(-c3nc4ccccc4s3)cc21` [Compound Z2], the MIC in series [10] is 20 µg/mL; in series [11], 2.5 µg/mL; in [12], 0.6 µg/mL.

Turning to `CCCCCCCCCOc1ccc(F)c(C(N)=O)c1F` [DFNB, 2,6-difluorononyloxybenzamide, reference compound], the “Morphological changes in septum formation (TEM)” value in [9] is “strong alterations in the septum formation and bacterial desegregation”.

Turning to `Cc1nc(-c2ccc3c(c2)OC(COc2ccc(F)c(C(N)=O)c2F)CO3)no1` (centres unmarked) [II], the MIC in [13] was above 100 µg/mL; in [14], 16 µg/mL (≈ 39.7 µM); in [11], 16 µg/mL (≈ 39.7 µM); in series [12], 0.6 µg/mL (≈ 1.49 µM); in series [16], above 100 µg/mL. The “Morphometric analysis by TEM” value in [15] was “significant elongation in cellular dimension, bacterial swelling and cell desegregation”.

On to `CSc1nc(-c2ccc3c(c2)OC(COc2ccc(F)c(C(N)=O)c2F)CO3)no1` (centres unmarked) [I], for which the MIC is above 100 µg/mL in [13]; 16 µg/mL (≈ 36.7 µM) in series [14]; 16 µg/mL (≈ 36.7 µM) in series [11]; 0.6 µg/mL (≈ 1.38 µM) in series [12]; above 100 µg/mL in series [16]. For the same molecule, in series [15], the “Morphometric analysis by TEM” value was “significant elongation in cellular dimension, bacterial swelling and cell desegregation”.

Consider `CN(C)CNC(=O)c1c(F)ccc(OCc2nc3cc(Cl)cnc3s2)c1F` [TXY436], for which the MIC is 8 µg/mL (≈ 19.4 µM) in [17], 8 µg/mL (≈ 19.4 µM) in [11] and 1.0 µg/mL (≈ 2.42 µM) in [12].
